Patent US20260062443A1 (ALEXION PHARMACEUTICALS, INC., priority 2022, published 2026)

target: T1, Human complement C1s enzyme (Homo sapiens, UniProt P09871); assay: Human C1s enzyme assay; format: biochemical; conditions: human complement C1s enzyme 1.16 nM, substrate Z-L-Lys-SBzl 100 μM, 5 min preincubation; read-out: IC50 (Stars), C1s Inhibiting Activity
T1 sequence (P09871 438-688 limits assumed): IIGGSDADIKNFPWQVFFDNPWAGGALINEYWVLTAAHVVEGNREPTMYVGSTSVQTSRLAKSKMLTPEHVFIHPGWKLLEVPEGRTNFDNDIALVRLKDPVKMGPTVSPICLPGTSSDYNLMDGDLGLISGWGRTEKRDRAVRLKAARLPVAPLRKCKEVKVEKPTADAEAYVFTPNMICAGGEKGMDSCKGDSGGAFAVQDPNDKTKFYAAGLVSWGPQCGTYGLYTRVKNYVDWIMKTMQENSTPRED
T1 sequence (P09871 16-437 partner limits assumed): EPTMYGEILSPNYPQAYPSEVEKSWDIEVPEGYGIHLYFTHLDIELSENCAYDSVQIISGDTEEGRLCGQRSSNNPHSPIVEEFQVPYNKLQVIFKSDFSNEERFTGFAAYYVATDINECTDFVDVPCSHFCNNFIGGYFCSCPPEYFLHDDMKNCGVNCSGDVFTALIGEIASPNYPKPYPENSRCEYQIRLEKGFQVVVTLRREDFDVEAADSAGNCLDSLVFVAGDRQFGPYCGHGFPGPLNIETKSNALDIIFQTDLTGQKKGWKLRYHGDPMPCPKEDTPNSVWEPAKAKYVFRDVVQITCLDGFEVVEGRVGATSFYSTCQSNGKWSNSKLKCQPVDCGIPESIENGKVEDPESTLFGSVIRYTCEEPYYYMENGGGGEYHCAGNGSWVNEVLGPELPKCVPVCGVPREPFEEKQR
How it was run: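 IC50 from nonlinear regression of reaction rates versus compound concentration, with rates taken from A405 recorded at 30 s intervals over 30 min after adding 100 μM Z-L-Lys-SBzl plus 100 μM DTNB. Enzyme was human C1s purified from serum, 1.16 nM, given 5 min compound preincubation at room temperature, pH 7.5 Tris/1 M NaCl.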

| SMILES | IC50 |
| --- | --- |
| Cc1ccc(Oc2cccc(C(=O)NCC(=O)N3C[C@H](OC(F)F)C[C@H]3C(=O)NCc3cc4c(s3)CNCC4)c2)c(F)c1 [Compound 339, (2S,4R)-4-(difluoromethoxy)-1-((3-(2-fluoro-4-methylphenoxy)benzoyl)glycyl)-N-((4,5,6,7-tetrahydrothieno[2,3-c]pyridin-2-yl)methyl) pyrrolidine-2-carboxamide] | < 100 nM |
| O=C(NCC(=O)N1C[C@H](OC(F)F)C[C@H]1C(=O)NCc1ccc2c(c1)CCN2)c1ccc2c(c1)Oc1ccccc1S2 [Compound 197, (2S,4R)-4-(difluoromethoxy)-N-(indolin-5-ylmethyl)-1-((phenoxathiine-3-carbonyl)glycyl)pyrrolidine-2-carboxamide] | > 1000 nM |
| Nc1noc2cc(CNC(=O)[C@@H]3C[C@@H](OC(F)F)CN3C(=O)CNC(=O)c3ccc4c(c3)Oc3ccccc3S4)ccc12 [Compound 232, (2S,4R)-N-((3-aminobenzo[d]isoxazol-6-yl)methyl)-4-(difluoromethoxy)-1-((phenoxathiine-3-carbonyl)glycyl)pyrrolidine-2-carboxamide] | > 1000 nM |
| C[C@@H](NC(=O)[C@@H]1C[C@]2(C)C[C@@H]2N1C(=O)CNC(=O)c1ccc2c(c1)Oc1ccccc1S2)c1cc2cnccc2[nH]1 [Compound 130, (1S,3S,5S)-N-((R)-1-(1H-pyrrolo[3,2-c]pyridin-2-yl)ethyl)-5-methyl-2-((phenoxathiine-3-carbonyl)glycyl)-2-azabicyclo[3.1.0]hexane-3-carboxamide] | < 100 nM |
| COC[C@@]12C[C@@H]1N(C(=O)CNC(=O)c1ccc3c(c1)Oc1ccccc1S3)[C@H](C(=O)N[C@H](C)c1cc3cnccc3[nH]1)C2 [Compound 191, (1S,3S,5R)-N-((R)-1-(1H-pyrrolo[3,2-c]pyridin-2-yl)ethyl)-5-(methoxymethyl)-2-((phenoxathiine-3-carbonyl)glycyl)-2-azabicyclo[3.1.0]hexane-3-carboxamide] | < 100 nM |
| C[C@@H](NC(=O)[C@@H]1C[C@]2(C)C[C@@H]2N1C(=O)CNC(=O)c1ccc(-c2ccc(F)cc2F)cc1)c1cc2cnccc2[nH]1 [Compound 147, (1S,3S,5S)-N-((R)-1-(1H-pyrrolo[3,2-c]pyridin-2-yl)ethyl)-2-((2′,4′-difluoro-[1,1′-biphenyl]-4-carbonyl)glycyl)-5-methyl-2-azabicyclo[3.1.0]hexane-3-carboxamide] | 100 to 1000 nM |
| O=C(NCC(=O)N1C[C@H](OC(F)F)C[C@H]1C(=O)NCc1ccc2[nH]ncc2c1)c1ccc2c(c1)Oc1ccccc1S2 [Compound 192, (2S,4R)-N-((1H-indazol-5-yl)methyl)-4-(difluoromethoxy)-1-((phenoxathiine-3-carbonyl)glycyl)pyrrolidine-2-carboxamide] | > 1000 nM |
| O=C(NCC(=O)N1C[C@H](OC(F)F)C[C@H]1C(=O)NCc1cc2cnccc2[nH]1)c1cccc(Oc2ccc(C3CC3)cc2)c1 [Compound 294, (2S,4R)-N-((1H-pyrrolo[3,2-c]pyridin-2-yl)methyl)-1-((3-(4-cyclopropylphenoxy)benzoyl)glycyl)-4-(difluoromethoxy)pyrrolidine-2-carboxamide] | < 100 nM |
| C[C@@H](NC(=O)[C@@H]1C[C@@H](c2ccccc2)CN1C(=O)CNC(=O)c1ccc2c(c1)Oc1ccccc1S2)c1cc2cnccc2[nH]1 [Compound 169, (2S,4S)-N-((R)-1-(1H-pyrrolo[3,2-c]pyridin-2-yl)ethyl)-1-((phenoxathiine-3-carbonyl)glycyl)-4-phenylpyrrolidine-2-carboxamide] | < 100 nM |
| C[C@@H](NC(=O)[C@@H]1C[C@@H](OC(F)F)CN1C(=O)CNC(=O)c1cnc2c(c1)Oc1ccccc1S2)c1cc2cnccc2[nH]1 [Compound 283, N-[2-[(2S,4R)-4-(difluoromethoxy)-2-[[(1R)-1-(1H-pyrrolo[3,2-c]pyridin-2-yl)ethyl]carbamoyl]pyrrolidin-1-yl]-2-oxo-ethyl]-[1,4]benzoxathiino[3,2-b]pyridine-3-carboxamide] | < 100 nM |
| O=C(NCC(=O)N1C[C@H](OC(F)F)C[C@H]1C(=O)NCc1cc2cnccc2[nH]1)c1ccc(Oc2ccccc2)cn1 [Compound 137, N-(2-((2S,4R)-2-(((1H-pyrrolo[3,2-c]pyridin-2-yl)methyl)carbamoyl)-4-(difluoromethoxy)pyrrolidin-1-yl)-2-oxoethyl)-5-phenoxypicolinamide] | < 100 nM |
| CCc1ccc(Oc2cc(F)cc(C(=O)NCC(=O)N3C[C@H](OC(F)F)C[C@H]3C(=O)NCc3cc4cnccc4[nH]3)c2)cc1 [Compound 370, (2S,4R)-N-((1H-pyrrolo[3,2-c]pyridin-2-yl)methyl)-4-(difluoromethoxy)-1-((3-(4-ethylphenoxy)-5-fluorobenzoyl)glycyl)pyrrolidine-2-carboxamide] | < 100 nM |
| Cc1ccc(Oc2cccc(C(=O)NCC(=O)N3[C@H]4C[C@@]4(C)C[C@H]3C(=O)N[C@H](C)c3cc4cnccc4[nH]3)c2)c(F)c1 [Compound 320, (1S,3S,5S)-N-((R)-1-(1H-pyrrolo[3,2-c]pyridin-2-yl)ethyl)-2-((3-(2-fluoro-4-methylphenoxy)benzoyl)glycyl)-5-methyl-2-azabicyclo[3.1.0]hexane-3-carboxamide] | < 100 nM |
| C[C@@]12C[C@@H]1N(C(=O)CN1Cc3cc(-c4ccc(F)cc4F)ccc3C1=O)[C@H](C(=O)NCc1cc3cnccc3[nH]1)C2 [Compound 129, (1S,3S,5S)-N-((1H-pyrrolo[3,2-c]pyridin-2-yl)methyl)-2-(2-(5-(2,4-difluorophenyl)-1-oxoisoindolin-2-yl)acetyl)-5-methyl-2-azabicyclo[3.1.0]hexane-3-carboxamide] | < 100 nM |
| C[C@@H](NC(=O)[C@@H]1C[C@](F)(CF)CN1C(=O)CNC(=O)c1ccc(-c2ccc(F)cc2F)cc1)c1cc2cnccc2[nH]1 [Compound 162, (2S,4R)-N-((R)-1-(1H-pyrrolo[3,2-c]pyridin-2-yl)ethyl)-1-((2′,4′-difluoro-[1,1′-biphenyl]-4-carbonyl)glycyl)-4-fluoro-4-(fluoromethyl)pyrrolidine-2-carboxamide] | 100 to 1000 nM |

Now from value to compound:

| IC50 | SMILES |
| --- | --- |
| < 100 nM | C[C@@H](NC(=O)[C@@H]1CC2(CN1C(=O)CN1Cc3ccc(-c4ccc(F)cc4F)cc3C1=O)OCCO2)c1cc2cnccc2[nH]1 [Compound 126, (S)-N-((R)-1-(1H-pyrrolo[3,2-c]pyridin-2-yl)ethyl)-7-(2-(6-(2,4-difluorophenyl)-1-oxoisoindolin-2-yl)acetyl)-1,4-dioxa-7-azaspiro[4.4]nonane-8-carboxamide] |
| 100 to 1000 nM | Cc1ccc2cc(C(=O)NCC(=O)N3CC4(C[C@H]3C(=O)NCc3cc5cnccc5[nH]3)OCCO4)sc2c1 [Compound 281, (S)-N-((1H-pyrrolo[3,2-c]pyridin-2-yl)methyl)-7-((6-methylbenzo[b]thiophene-2-carbonyl)glycyl)-1,4-dioxa-7-azaspiro[4.4]nonane-8-carboxamide] |
| 100 to 1000 nM | COc1cccc(C(=O)NCC(=O)N2C[C@H](OC(F)F)C[C@H]2C(=O)NCc2cc3cnccc3[nH]2)c1 [Compound 382, (2S,4R)-N-((1H-pyrrolo[3,2-c]pyridin-2-yl)methyl)-4-(difluoromethoxy)-1-((3-methoxybenzoyl)glycyl) pyrrolidine-2-carboxamide] |
| < 100 nM | O=C(NCC(=O)N1CC2(C[C@H]1C(=O)NCc1cc3cnccc3[nH]1)OCCO2)c1ccc2c(c1)Oc1ccccc1S2 [Compound 4, (S)-N-((1H-pyrrolo[3,2-c]pyridin-2-yl)methyl)-7-((phenoxathiine-3-carbonyl)glycyl)-1,4-dioxa-7-azaspiro[4.4]nonane-8-carboxamide] |
| > 1000 nM | O=C(NCC(=O)N1CC2(C[C@H]1C(=O)NCc1cc3cncnc3[nH]1)OCCO2)c1ccc2c(c1)-c1ccccc1C2(F)F [Compound 16, (S)-N-((7H-pyrrolo[2,3-d]pyrimidin-6-yl)methyl)-7-((9,9-difluoro-9H-fluorene-3-carbonyl)glycyl)-1,4-dioxa-7-azaspiro[4.4]nonane-8-carboxamide] |
| < 100 nM | O=C(NCC(=O)N1C[C@H](OC(F)F)C[C@H]1C(=O)NCc1cc2cnccc2[nH]1)c1cccc(N2Cc3ccccc3C2)c1 [Compound 378, (2S,4R)-N-((1H-pyrrolo[3,2-c]pyridin-2-yl)methyl)-4-(difluoromethoxy)-1-((3-(isoindolin-2-yl)benzoyl)glycyl)pyrrolidine-2-carboxamide] |
| > 1000 nM | O=C(NCC(=O)N1CC2(C[C@H]1C(=O)NCc1nc3cnccc3o1)OCCO2)c1ccc2c(c1)Oc1ccccc1S2 [Compound 31, (S)-N-(oxazolo[4,5-c]pyridin-2-ylmethyl)-7-((phenoxathiine-3-carbonyl)glycyl)-1,4-dioxa-7-azaspiro[4.4]nonane-8-carboxamide] |
| < 100 nM | O=C(NCC(=O)N1CC2(C[C@H]1C(=O)NCc1cc3cnccc3[nH]1)OCCO2)c1ccc2oc3ccccc3c2c1 [Compound 35, (S)-N-((1H-pyrrolo[3,2-c]pyridin-2-yl)methyl)-7-((dibenzo[b,d]furan-2-carbonyl)glycyl)-1,4-dioxa-7-azaspiro[4.4]nonane-8-carboxamide] |
